Measurements as given in US6727237B2, “Inhibitors of bacterial NAD synthetase” (priority 1998, dated 2004).

Each compound was assayed against T1, bacterial NAD synthetase enzyme (Bacillus subtilis, UniProt P08164) (assay: biochemical). Settings: not given.
T1 sequence (P08164 2-272 limits assumed): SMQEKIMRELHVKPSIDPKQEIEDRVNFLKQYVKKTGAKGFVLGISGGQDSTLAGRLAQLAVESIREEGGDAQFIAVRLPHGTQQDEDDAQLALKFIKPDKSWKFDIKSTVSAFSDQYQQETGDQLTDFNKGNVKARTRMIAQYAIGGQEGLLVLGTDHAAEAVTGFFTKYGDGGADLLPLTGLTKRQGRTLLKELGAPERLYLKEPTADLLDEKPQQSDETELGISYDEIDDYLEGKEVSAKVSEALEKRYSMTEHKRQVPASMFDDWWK
Assay type: biochemical

SMILES	IC50 [µM]	inhibition at 200 µM [%]	inhibition at 100 µM [%]
C[N+](C)(C)c1ccc(CC(=O)OCCCCCCCCOc2cccc([N+](=O)[O-])c2)cc1 [Compound 1085]	138	87	
C[n+]1cccc(C(=O)OCCCOc2ccc(C(=O)c3ccccc3)cc2)c1 [Compound 1068]	62.5	92	
C[N+](C)(C)c1ccc(CC(=O)OCCCCCCCCOc2ccc(OC(=O)c3ccccc3)cc2)cc1 [Compound 1082]	50	81	
CCCCc1oc2ccccc2c1C(=O)c1ccc(OCCCOC(=O)c2ccc[n+](C)c2)cc1 [Compound 1064]	37.5	92	
C[N+](C)(C)c1ccc(CC(=O)OCCCCCCCCOc2ccccc2C(=O)Nc2ccccc2)cc1 [Compound 1074]	30	91	
CC(=O)c1ccc(OCCCCCCCCOC(=O)Cc2ccc([N+](C)(C)C)cc2)cc1 [Compound 1078]	123	68	
CC(=O)c1ccc2[nH]c(CCCCCCCCOC(=O)c3cccc([N+](C)(C)C)c3)cc2c1 [Compound 879]	40		99.6
CC(=O)c1ccc2[nH]c(CCCCCCCCOC(=O)c3ccc[n+](C)c3)cc2c1 [Compound 924]	25		97.7
C[N+](C)(C)c1ccc(CC(=O)OCCCCCCCCOc2ccc(Oc3ccccc3)cc2)cc1 [Compound 1090]	21.2	96	
C[N+](C)(C)c1ccc(CC(=O)OCCCCCCCCn2ccc3cc(NC(=O)c4ccccc4)ccc32)cc1 [Compound 1104]	61		

Same assay, conditions: NAD synthetase enzyme inhibition; read-out: IC50 of Compounds

SMILES	IC50 [µM]
C[N+](C)(C)c1ccc(CC(=O)OCCCCCCCCOc2ccccc2[N+](=O)[O-])cc1 [Compound 1075]	65

Same assay, conditions: compound at 0.05 mM

SMILES	% Inhibition [%]
COC(=O)c1cc2cc(OCc3ccccc3)ccc2n1CCCCCCCCCOC(=O)Cc1ccc(N(C)C)cc1 [Compound 966]	8.25
COC(=O)c1cc2cc(OCc3ccccc3)ccc2n1CCCCCCCOC(=O)Cc1ccc(N(C)C)cc1 [Compound 964]	1.18
COC(=O)c1cc2ccccc2n1CCCCCCCCCOC(=O)c1cccnc1 [Compound 950]	7.32

Same assay, conditions: compound at 0.1 mM (Table 314)

SMILES	% Inhibition [%]
CCCCc1ccc2[nH]c(CCCCCCCC[n+]3ccccc3)cc2c1 [Compound 317]	25.04
Fc1ccc2[nH]c(CCCCCCC[n+]3ccccc3)cc2c1 [Compound 346]	42.57
COC(=O)c1cc2cc(OCc3ccccc3)ccc2n1CCCCCCCCCOC(=O)c1ccc[n+](C)c1 [Compound 978]	80.31
COC(=O)c1ccc2[nH]c(CCCC[n+]3cccc4ccccc43)cc2c1 [Compound 487]	9.88
CC(C)c1ccc2[nH]c(CCCC[n+]3ccccc3)cc2c1 [Compound 319]	16.99
c1ccc(Oc2ccc3[nH]c(CCCCCCC[n+]4ccccc4)cc3c2)cc1 [Compound 352]	32.69
FC(F)(F)c1ccc2cc(CCCC[n+]3ccccc3)[nH]c2c1 [Compound 715]	20.73
CC(C)c1ccc2[nH]c(CCCCOC(=O)c3cc[n+](C)cc3)cc2c1 [Compound 904]	47.68
FC(F)(F)c1ccc2[nH]c(CCCCCCC[n+]3cccc4ccccc43)cc2c1 [Compound 472]	12.76
CC(C)c1ccc2[nH]c(CCCCC[n+]3ccccc3)cc2c1 [Compound 320]	44.72
CC(=O)c1ccc2[nH]c(CCCCCCCOC(=O)c3ccc(N(C)C)cc3)cc2c1 [Compound 637]	4.42
c1ccc(-c2ccc3[nH]c(CCCCCCC[n+]4ccccc4)cc3c2)cc1 [Compound 328]	47.85

Same assay, conditions: compound at 0.2 mM (Table 312A)

SMILES	% Inhibition [%]
O=[N+]([O-])c1ccc2[nH]c(CCCCCCCC[n+]3ccc4ccccc4c3)cc2c1 [Compound 551]	50.05
O=[N+]([O-])c1cc([N+](=O)[O-])c2[nH]c(CCCC[n+]3ccc4ccccc4c3)cc2c1 [Compound 523]	18.12
COC(=O)c1ccc2[nH]c(CCCC[n+]3ccc4ccccc4c3)cc2c1 [Compound 595]	17.94
Fc1cc(F)c2[nH]c(CCCCC[n+]3cccc4ccccc43)cc2c1 [Compound 410]	8.77
CC(C)c1ccc2[nH]c(CCCCCCC[n+]3ccccc3)cc2c1 [Compound 322]	14.40
c1ccc(Oc2ccc3[nH]c(CCCCCC[n+]4ccc5ccccc5c4)cc3c2)cc1 [Compound 567]	22.51
CC(=O)c1ccc2[nH]c(CCCCCCC[n+]3ccc4ccccc4c3)cc2c1 [Compound 586]	2.01
O=C(c1ccccc1)c1ccc2[nH]c(CCCCCCCC[n+]3ccc4ccccc4c3)cc2c1 [Compound 575]	42.01
O=C(O)c1ccc2[nH]c(CCCCCCC[n+]3ccc4ccccc4c3)cc2c1 [Compound 604]	34.10
O=[N+]([O-])c1ccc2[nH]c(CCCCCCCC[n+]3ccccc3)cc2c1 [Compound 335]	3.28
CC(C)c1ccc2[nH]c(CCCCCCC[n+]3cccc4ccccc43)cc2c1 [Compound 430]	1.20
O=C(O)c1ccc2[nH]c(CCC[n+]3ccc4ccccc4c3)cc2c1 [Compound 600]	3.10
O=C(c1ccccc1)c1ccc2[nH]c(CCCCCCC[n+]3cccc4ccccc43)cc2c1 [Compound 466]	5.79
c1ccc(-c2ccc3[nH]c(CCCCCCC[n+]4cccc5ccccc54)cc3c2)cc1 [Compound 436]	11.57
CN(C)c1ccc(C(=O)OCCCCCCCc2cc3cc(Oc4ccccc4)ccc3[nH]2)cc1 [Compound 619]	19.53
COC(=O)c1ccc2[nH]c(CCCC[n+]3ccccc3)cc2c1 [Compound 379]	6.27

SMILES	% Inhibition [%]
O=C(c1ccccc1)c1ccc2[nH]c(CCCC[n+]3ccc4ccccc4c3)cc2c1 [Compound 571]	17.47
FC(F)(F)c1ccc2cc(CCCCCCCC[n+]3cccc4ccccc43)[nH]c2c1 [Compound 401]	14.26
Fc1ccc2[nH]c(CCCC[n+]3ccc4ccccc4c3)cc2c1 [Compound 559]	33.24
FC(F)(F)c1ccc2[nH]c(CCC[n+]3ccc4ccccc4c3)cc2c1 [Compound 576]	2.05
COC(=O)c1ccc2[nH]c(CCCCCCCC[n+]3ccccc3)cc2c1 [Compound 383]	2.76
Fc1cc(F)c2[nH]c(CCC[n+]3ccc4ccccc4c3)cc2c1 [Compound 516]	29.95
c1ccc(Oc2ccc3[nH]c(CCCCCCCC[n+]4ccc5ccccc5c4)cc3c2)cc1 [Compound 569]	34.84
c1ccc(-c2ccc3[nH]c(CCCCCCC[n+]4ccc5ccccc5c4)cc3c2)cc1 [Compound 544]	19.66
O=[N+]([O-])c1cc([N+](=O)[O-])c2[nH]c(CCCCCCC[n+]3ccccc3)cc2c1 [Compound 310]	38.29
Fc1cc(F)c2[nH]c(CCCCCCCC[n+]3ccc4ccccc4c3)cc2c1 [Compound 521]	29.59
Cc1ccc2[nH]c(CCC[n+]3ccc4ccccc4c3)cc2c1 [Compound 510]	20.99
CC(=O)c1ccc2[nH]c(CCCC[n+]3ccc4ccccc4c3)cc2c1 [Compound 583]	31.37
O=C(OCCCCCCCc1cc2ccc(C(F)(F)F)cc2[nH]1)c1ccncc1 [Compound 697]	4.28
COC(=O)c1ccc2[nH]c(CCCCCC[n+]3cccc4ccccc43)cc2c1 [Compound 489]	5.87
COc1ccc2c(ccn2CCCCCOC(=O)Cc2ccc([N+](C)(C)C)cc2)c1 [Compound 741]	30.47
O=C(O)c1ccc2[nH]c(CCCC[n+]3ccccc3)cc2c1 [Compound 385]	61.62

Same assay, conditions: compound at 0.2 mM (Table 312B)

SMILES	% Inhibition [%]
C[N+](C)(C)c1ccc(CC(=O)OCCCCCCCCOc2cccc(N3CCOCC3)c2)cc1 [Compound 1092]	60
C[N+](C)(C)c1ccc(CC(=O)OCCCCCCCCOc2ccccc2[N+](=O)[O-])cc1 [Compound 1075]	79
CN(C)c1ccc(CC(=O)OCCCCCCCCOc2ccc(C(=O)c3ccccc3)cc2)cc1 [Compound 1040]	3
CN(C)c1ccc(CC(=O)OCCCCCCCCOc2ccccc2N2CCOCC2)cc1 [Compound 1047]	45
O=C(OCCCCCCCCOc1ccc(Oc2ccccc2)cc1)c1cccnc1 [Compound 1016]	29
COc1cccc(OCCCCCCCCOC(=O)Cc2ccc([N+](C)(C)C)cc2)c1 [Compound 1077]	73
NC(=O)c1ccc(OCCCCCCCCOC(=O)c2cccnc2)cc1 [Compound 1014]	14

Same assay, conditions: compound at 0.25 mM

SMILES	% Inhibition [%]
C[n+]1cccc(C(=O)OCCCCCCCCc2cc3cc(Oc4ccccc4)ccc3[nH]2)c1 [Compound 918]	98.6
C[n+]1cccc(C(=O)OCCCCc2cc3ccc(C(F)(F)F)cc3[nH]2)c1 [Compound 913]	7.6
C[n+]1ccc(C(=O)OCCCCCCCCc2cc3ccc(C(F)(F)F)cc3[nH]2)cc1 [Compound 900]	84.9
C[n+]1ccc(C(=O)OCCCCCCCCc2cc3cc(Oc4ccccc4)ccc3[nH]2)cc1 [Compound 903]	95.5
CC(=O)c1ccc2[nH]c(CCCCOC(=O)c3cc[n+](C)cc3)cc2c1 [Compound 907]	20.6
C[N+](C)(C)c1ccc(C(=O)OCCCCCCCCc2cc3ccc(C(F)(F)F)cc3[nH]2)cc1 [Compound 885]	98.0
C[N+](C)(C)c1cccc(C(=O)OCCCCc2cc3cc(C(=O)c4ccccc4)ccc3[nH]2)c1 [Compound 880]	96.7
CC(=O)c1ccc2[nH]c(CCCCOC(=O)c3ccc([N+](C)(C)C)cc3)cc2c1 [Compound 892]	97.7
